Earlier results as cited in patent US9023374B2, “Sanitizing compositions” (priority 2009, dated 2015).
Read-outs that look alike come from different tables or passages of the source.

Columns and labels:
feline calicivirus [1] = details: room temperature
feline calicivirus [2] = system: feline calicivirus

| SMILES | log10 reduction of feline calicivirus (feline calicivirus [1]; after 8 minutes) [log10] | log10 reduction of feline calicivirus (feline calicivirus [1]; after 30 minutes) [log10] | inactivation of feline calicivirus (feline calicivirus [2]) |
| --- | --- | --- | --- |
| CCO [70% w/w ethanol, ethanol] | < 2 | 3 | – |
| CCO [ethanol] | – | – | failed to inactivate the virus |
